Data on two substances can be found in patent publication US8946119B2, “Chitooligosaccharides and methods for use in enhancing soybean growth” (Novozymes BioAg A/S, priority 2011, dated 2015).

Assay [1] deals with Soybean seeds (Jung seed, var. 8168NRR). The assay is described as follows: Greenhouse soybean seed treatment, leaf surface area. The format is in vivo. Conditions: seed treatment 3 fl oz/100 lbs of seed; seedlings grown 4 wks; central leaflet of 2nd trifoliate; vs control (water); FIG. 5. The protocol: Soybean seeds (Jung seed, var. 8168NRR) were treated with various active molecules. Seeds were treated with a liquid dose rate of 3 fl oz/100 lbs of seed. Seeds were allowed to dry for a 2 hours and planted in greenhouse in plastic pots containing 1:1 sand:perlite mixture. Seedlings were grown for 4 wks with occasional liquid fertilizer applications and then the plants were harvested. The central leaflet from the 2nd trifoliate (from down to top) was isolated and measured for surface area on a WinRhizo scanner. The rest of the plants were used for plant dry weight (DW).

For the next assay, the system named is soybean foliage. The assay is described as follows: Soybean field trials, foliar treatment, grain yield. To be noted: in vivo.
The test system of assay [2] is Soybean seeds (Pioneer 9oM80). The assay is described as follows: Soybean seed treatment in petriplates, radicle length. The format is in vivo. Conditions: germination paper soaked with 5 ml of treatment solution; radicles measured after 48 hours; FIG. 7. How it is done:
Soybean seeds (Pioneer 9oM80) were plated in petriplates on moist germination paper soaked with 5 ml of treatment solution containing either water or Soybean LCO, Pea CO and CO plus fatty acids. Seedling radicles were isolated after 48 hours and measured for their length.

Assay [3] has as its system Soybean plants (Jung seed, var. 8168NRR). The assay is described as follows: Greenhouse soybean foliar treatment, plant dry biomass. It counts as in vivo. To be noted: foliar application at V4 growth stage, FIG. 8. The protocol: Soybean plants (Jung seed, var. 8168NRR) were treated with various active molecules at V4 growth stage. Plant were grown from seeds in greenhouse in plastic pots containing 1:1 sand:perlite mixture. Seedlings were grown for 4 wks with occasional liquid fertilizer applications and then the plants were harvested.

Take LCO-V (C18:1) [LCO (SP104)]: in assay [1], the leaf surface area entry was “significant increase in leaf surface area”. In addition, in the assay on soybean foliage, the “Positive Yield Response (%)” value came out at 68.4%; the “Response (bu/A) over Control” value was found to be 1.8 bu/A; the “Response Increase (% of Control)” value amounted to 3%; the “YIELD, Mean (N = 19)” value is 58.3 bu/A.

For the substance LCO-V(C18:1, MeFuc) [soybean LCO], the radicle length entry in assay [2] was “better seed radicle growth enhancement over control and CO”. Further, the plant dry biomass result in assay [3] is “no significant effect on plant dry biomass increase”; in assay [3] (listed as LCO) it was “relatively higher than the control plants”.
